Broadly, the EC50 is the midpoint of the concentration-response curve.

The test system of the first assay is TNFα. In words: Cot Monocyte TNFα Cell Based Assay. To be noted: Homo sapiens, Monocyte, read-out: EC50 TNF, LPS-stimulated human monocytes, TNFα TR-FRET. (In general: TR-FRET usually uses a lanthanide donor and a delayed reading to cut background.)
As to `COc1c(C(Nc2cc(C#N)c3ncc(C#N)c(NCC(C)(C)C)c3c2)c2ccc(F)nc2C)nnn1C` (stereo not drawn) [Example 908, 6-(((6-fluoro-2-methylpyridin-3-yl)(5-methoxy-1-methyl-1H-1,2,3-triazol-4-yl)methyl)amino)-4-(neopentyl-amino)quinoline-3,8-dicarbonitrile], the EC50 was 238 nM. On the same count and under the same terms, for `CC(C)(C)CNc1c(C#N)cnc2c(Cl)cc(N[C@H](c3cn(C4(C(F)(F)F)CC4)nn3)c3cccc4c(Cl)nccc34)cc12` [Example 916, (S)-8-chloro-6-(((1-chloroisoquinolin-5-yl)(1-(1-(trifluoromethyl)cyclopropyl)-1H-1,2,3-triazol-4-yl)methyl)amino)-4-(neopentylamino)quinoline-3-carbonitrile] the value was 269 nM; for `CC(C)(C)CNc1c(C#N)cnc2c(Cl)cc(N[C@H](c3nnn(C4(C(F)F)CC4)c3F)c3cccc4ncccc34)cc12` [Example 962, (S)-8-chloro-6-(((1-(1-(difluoromethyl)cyclopropyl)-5-fluoro-1H-1,2,3-triazol-4-yl)(quinolin-5-yl)methyl)amino)-4-(neopentylamino)quinoline-3-carbonitrile], 135 nM. `COc1ccc([C@H](Nc2cc(Cl)c3ncc(C#N)c(NCC(C)(C)C)c3c2)c2nnn(C3(C(F)F)CC3)c2OC)c(C)n1` [Example 966, (S)-8-chloro-6-(((1-(1-(difluoromethyl)cyclopropyl)-5-methoxy-1H-1,2,3-triazol-4-yl)(6-methoxy-2-methylpyridin-3-yl)methyl)amino)-4-(neopentylamino)quinoline-3-carbonitrile]: the EC50 was 191 nM.

As for `COc1ccc(C(Nc2cc(Cl)c3ncc(C#N)c(NCC(C)(C)C)c3c2)c2nnn(C)c2OC)c(C)n1` (stereo not drawn) [Example 970, 8-chloro-6-(((5-methoxy-1-methyl-1H-1,2,3-triazol-4-yl)(6-methoxy-2-methylpyridin-3-yl)methyl)amino)-4-(neopentylamino)quinoline-3-carbonitrile], the EC50 was found to be 722 nM.

Staying with this assay, now noted: read-out: EC50 TNF; LPS-stimulated human monocytes, TNFα TR-FRET.
Regarding `COc1nccc2c([C@H](Nc3cc(Cl)c4ncc(C#N)c(NCC(C)(C)C(F)(F)F)c4c3)c3cn(C45CC(C4)C5)nn3)cccc12` [Example 928, (S)-6-(((1-(bicyclo[1.1.1]pentan-1-yl)-1H-1,2,3-triazol-4-yl)(1-methoxylsoquinolin-5-yl)methyl)amino)-8-chloro-4-((3,3,3-trifluoro-2,2-dimethylpropyl)amino)quinoline-3-carbonitrile], the EC50 came out at 99 nM. Same read-out and setting: for `COc1nccc2c([C@H](Nc3cc(Cl)c4ncc(C#N)c(NCC(C)(C)C)c4c3)c3cn([C@@H](C)CF)nn3)cccc12` [Example 932, 8-chloro-6-(((S)-(1-((S)-1-fluoropropan-2-yl)-1H-1,2,3-triazol-4-yl)(1-methoxylsoquinolin-5-yl)methyl)amino)-4-(neopentylamino)quinoline-3-carbonitrile] the value was 205 nM.

For the compound `Cn1ccc2c([C@H](Nc3cc(Cl)c4ncc(C#N)c(NCC(C)(C)C)c4c3)c3nnn(C45CC(C4)C5)c3F)cccc2c1=O` [Example 961, (S)-6-(((1-(bicyclo[111]pentan-1-yl)-5-fluoro-1H-1,2,3-triazol-4-yl)(2-methyl-1-oxo-1,2-dihydroisoquinolin-5-yl)methyl)amino)-8-chloro-4-(neopentylamino)quinoline-3-carbonitrile], the EC50 is 48 nM. Take `Cc1nc(F)ccc1[C@H](Nc1cc(Cl)c2ncc(C#N)c(NCC(C)(C)C)c2c1)c1nnn2c1OCCC2` [Example 985, (S)-8-chloro-6-(((6,7-dihydro-5H-[1,2,3]triazolo[5,l-b][1,3]oxazin-3-yl)(6-fluoro-2-methylpyridin-3-yl)methyl)amino)-4-(neopentylamino)quinoline-3-carbonitrile]: the EC50 was 126 nM.
